Test results reported in patent US11246893B2, “Bacteriocin production, compositions and methods of use” (ISOThrive Inc., priority 2016, dated 2022).

Experiments:
[1] = system: Weissella viridescens NRRL B-1951; test: tube assay, W. viridescens growth with nisin A or Z (absorbance); type: cell-based
Protocol: 100 g De-Man, Rogosa and Sharpe (MRS) media was prepared in a 500 mL Erlenmeyer to contain 5.5% solids in deionized water (18.2 MΩ, Hydro Service and Supplies. Gaithersburg, Md.). The media was autoclaved (121° C. 15 min), cooled, and inoculated with 1 mL (0.5 mL culture+0.5 mL glycerol, 40%; frozen at −78° C.) of Weissella viridescens NRRL B-1951 (test strain). The culture was incubated at 31° C. overnight (15 Hr).
The next day, stock solutions of either nisin A or Z were prepared in deionized water to contain 31.3 and 33.7 μg/g of each peptide.
100 g MRS media was prepared to contain 5.5% solids. Two sets (one set each for nisin A and nisin Z) of eight Hach-type tubes (Kimble Chase 45066-16100) were prepared. Within each set, in order was added 5.00, 4.95, 4.90, 4.75, 4.50, 4.00, 3.50 and 3.00 g MRS media. The tubes were sealed and autoclaved.
To each tube was added, of the appropriate nisin stock, 0.00, 0.05, 0.10, 0.25, 0.50, 1.00, 1.50, and 2.00 g. Each tube was inoculated with 0.25 g of late-log W. viridescens NRRL B-1951 culture. The tubes were sealed and the absorbance at 600 nm was quickly measured (Hach DR900). The tubes were segregated by set and incubated at 31° C. overnight (15 Hr).
Each tube was thoroughly mixed to suspend settled cells and the absorbance was measured again at 600 nm. The final absorbance values for each sample were corrected for their respective background (taken just after inoculation, scattered light from added cells). The corrected absorption values were a measure of W. viridescens growth.
As indicated above, the absorbance of the culture was measured again at 600 nm as a measure of W. viridescens growth, and the absorbance values for each sample were corrected for their respective background. These corrected absorption values plotted against nisin concentration and minimum inhibiting concentration approximated via regression.
The results were fit via four parameter logistic regression (4PLR), combined into a continuous function with a second assay set (0.65-9.99 μg/g), and are shown in FIG. 11A.

[2] = system: Weissella viridescens NRRL B-1951; test: HPLC of tube supernatants: glucose consumption and organic acid production; type: cell-based; details: for acetic acid in fermentation media: MRS media originally contained 7% acetate
Protocol: Each tube was sampled (1.5 mL conical polypropylene centrifuge tubes) and centrifuged at 10 kRPM for 10 minutes to remove and suspended cells. The resulting supernatants were filtered (0.2 μm nylon), diluted to 0.5% solids, and analyzed by high pressure liquid chromatography (HPLC, Agilent 1100, refractive index detector and BioRad Ainex HPX-87H column) for consumption of glucose and production of organic acids.
Note that the MRS media originally contained 7% acetate; therefore 7% should be subtracted from the values for acetate in Table 8 to ascertain the amount of acetate generated during the assay.

[3] = precipitation noted in proliferation assay (FIG. 9E); type: physicochemical
Protocol: As illustrated, nisins can have some uncommon amino acids such as lanthionine (Lan), methyllanthionine (MeLan), didehydroalanine (Dha), and didehydroaminobutyric acid (Dhb). FIG. 9E graphically illustrates inhibition of HCT-15 and DLD-1 colorectal cancer cell proliferation and IC50 values obtained for nisins A and Z. The plot is representative of four triplicate tests including two each for HCT-15 and DLD-1 cells. Note that Nisin A began to precipitate at concentrations >400 μg/mL.

[4] = tube A2, nisin A 0.33 μg/g, 15 Hr
[5] = tube A3, nisin A 0.68 μg/g, 15 Hr
[6] = tube A4, nisin A 1.38 μg/g, 15 Hr
[7] = tube A5, nisin A 3.08 μg/g, 15 Hr
[8] = tube A6, nisin A 5.97 μg/g, 15 Hr
[9] = tube A7, nisin A 8.86 μg/g, 15 Hr
[10] = tube A8, nisin A 11.87 μg/g, 15 Hr

MSTKDFNLDLVSVSKKDSGASPRITSISLCTPGCKTGALMGCNMKTATCHCSIHVSK [nisin A]
MIC, separate experiment [1]: about 2.5 μg/g
minimal inhibitory concentration estimated from graphs ([1]; 15 Hr, 31° C.): 5 to 7 µg/g
91516 ABS 610f [1, 4]: 1.568
Corrected ABS 610rs [1, 4]: 1.106
91516 ABS 610f [1, 5]: 1.531
Corrected ABS 610rs [1, 5]: 1.063
91516 ABS 610f [1, 6]: 1.334
Corrected ABS 610rs [1, 6]: 0.868
91516 ABS 610f [1, 7]: 0.911
Corrected ABS 610rs [1, 7]: 0.473
91516 ABS 610f [1, 8]: 0.536
Corrected ABS 610rs [1, 8]: 0.116
91516 ABS 610f [1, 9]: 0.403
Corrected ABS 610rs [1, 9]: 0.001
91516 ABS 610f [1, 10]: 0.361
Corrected ABS 610rs [1, 10]: 0.001
Maltotriose in fermentation media ([2]; tube A2, nisin A 0.33 μg/g): 0.312 %/brix
ethanol in fermentation media ([2]; tube A2, nisin A 0.33 μg/g): 0.068 %/brix
formic acid in fermentation media ([2]; tube A2, nisin A 0.33 μg/g): 0.263 %/brix
fructose in fermentation media ([2]; tube A2, nisin A 0.33 μg/g): 0.000 %/brix
glucose in fermentation media ([2]; tube A2, nisin A 0.33 μg/g): 23.122 %/brix
glycerol in fermentation media ([2]; tube A2, nisin A 0.33 μg/g): 0.292 %/brix
lactic acid in fermentation media ([2]; tube A2, nisin A 0.33 μg/g): 6.884 %/brix
maltose in fermentation media ([2]; tube A2, nisin A 0.33 μg/g): 0.581 %/brix
acetic acid in fermentation media ([2]; tube A2, nisin A 0.33 μg/g): 7.967 %/brix
Maltotriose in fermentation media ([2]; tube A4, nisin A 1.38 μg/g): 0.298 %/brix
ethanol in fermentation media ([2]; tube A4, nisin A 1.38 μg/g): 0.062 %/brix
formic acid in fermentation media ([2]; tube A4, nisin A 1.38 μg/g): 0.282 %/brix
fructose in fermentation media ([2]; tube A4, nisin A 1.38 μg/g): 0.000 %/brix
glucose in fermentation media ([2]; tube A4, nisin A 1.38 μg/g): 24.138 %/brix
glycerol in fermentation media ([2]; tube A4, nisin A 1.38 μg/g): 0.319 %/brix
lactic acid in fermentation media ([2]; tube A4, nisin A 1.38 μg/g): 5.496 %/brix
maltose in fermentation media ([2]; tube A4, nisin A 1.38 μg/g): 0.815 %/brix
acetic acid in fermentation media ([2]; tube A4, nisin A 1.38 μg/g): 8.219 %/brix
Maltotriose in fermentation media ([2]; tube A5, nisin A 3.08 μg/g): 0.276 %/brix
ethanol in fermentation media ([2]; tube A5, nisin A 3.08 μg/g): 0.094 %/brix
formic acid in fermentation media ([2]; tube A5, nisin A 3.08 μg/g): 0.407 %/brix
fructose in fermentation media ([2]; tube A5, nisin A 3.08 μg/g): 0.000 %/brix
glucose in fermentation media ([2]; tube A5, nisin A 3.08 μg/g): 24.698 %/brix
glycerol in fermentation media ([2]; tube A5, nisin A 3.08 μg/g): 0.350 %/brix
lactic acid in fermentation media ([2]; tube A5, nisin A 3.08 μg/g): 4.672 %/brix
maltose in fermentation media ([2]; tube A5, nisin A 3.08 μg/g): 0.598 %/brix
acetic acid in fermentation media ([2]; tube A5, nisin A 3.08 μg/g): 8.296 %/brix
Maltotriose in fermentation media ([2]; tube A6, nisin A 5.97 μg/g): 0.288 %/brix
ethanol in fermentation media ([2]; tube A6, nisin A 5.97 μg/g): 0.057 %/brix
formic acid in fermentation media ([2]; tube A6, nisin A 5.97 μg/g): 0.280 %/brix
fructose in fermentation media ([2]; tube A6, nisin A 5.97 μg/g): 0.000 %/brix
glucose in fermentation media ([2]; tube A6, nisin A 5.97 μg/g): 25.304 %/brix
glycerol in fermentation media ([2]; tube A6, nisin A 5.97 μg/g): 0.328 %/brix
lactic acid in fermentation media ([2]; tube A6, nisin A 5.97 μg/g): 2.707 %/brix
maltose in fermentation media ([2]; tube A6, nisin A 5.97 μg/g): 0.941 %/brix
acetic acid in fermentation media ([2]; tube A6, nisin A 5.97 μg/g): 8.143 %/brix
Maltotriose in fermentation media ([2]; tube A7, nisin A 8.86 μg/g): 0.419 %/brix
ethanol in fermentation media ([2]; tube A7, nisin A 8.86 μg/g): 0.055 %/brix
formic acid in fermentation media ([2]; tube A7, nisin A 8.86 μg/g): 0.234 %/brix
fructose in fermentation media ([2]; tube A7, nisin A 8.86 μg/g): 0.000 %/brix
glucose in fermentation media ([2]; tube A7, nisin A 8.86 μg/g): 25.444 %/brix
glycerol in fermentation media ([2]; tube A7, nisin A 8.86 μg/g): 0.299 %/brix
lactic acid in fermentation media ([2]; tube A7, nisin A 8.86 μg/g): 1.521 %/brix
maltose in fermentation media ([2]; tube A7, nisin A 8.86 μg/g): 0.775 %/brix
acetic acid in fermentation media ([2]; tube A7, nisin A 8.86 μg/g): 7.899 %/brix
Maltotriose in fermentation media ([2]; tube A8, nisin A 11.87 μg/g): 0.305 %/brix
ethanol in fermentation media ([2]; tube A8, nisin A 11.87 μg/g): 0.071 %/brix
formic acid in fermentation media ([2]; tube A8, nisin A 11.87 μg/g): 0.233 %/brix
fructose in fermentation media ([2]; tube A8, nisin A 11.87 μg/g): 0.000 %/brix
glucose in fermentation media ([2]; tube A8, nisin A 11.87 μg/g): 25.537 %/brix
glycerol in fermentation media ([2]; tube A8, nisin A 11.87 μg/g): 0.301 %/brix
lactic acid in fermentation media ([2]; tube A8, nisin A 11.87 μg/g): 1.579 %/brix
maltose in fermentation media ([2]; tube A8, nisin A 11.87 μg/g): 0.739 %/brix
acetic acid in fermentation media ([2]; tube A8, nisin A 11.87 μg/g): 8.091 %/brix
concentration at which precipitation began [3]: > 400 µg/mL
